Measurements taken from USRE48461E1, “Modulation of androgen receptor expression” (Ionis Pharmaceuticals, Inc., priority 2012, dated 2021).
Oligonucleotides are written 5' to 3', each unit as a sugar letter and its base; * is a phosphorothioate linkage, no mark a phosphodiester; rarer units and linkages stand in square brackets, end groups in braces. Plain capitals give the bases only. e = 2'-O-(2-methoxyethyl) (MOE); k = constrained ethyl (cEt); [5mC] = 5-methylcytosine; d = 2'-deoxy (DNA)

Assays:
AR mRNA [1] = test: AR mRNA levels in LMR20 cells (with/without DHT or R1881); type: cell-based, human; settings: LMR20 cells; for AR mRNA levels (% baseline value) after treatment with DHT: DHT 10 nM 72 hrs; for AR mRNA levels (% baseline value) after treatment with R1881: R1881 10 nM 72 hrs; for AR mRNA levels (% baseline value) of cells without AR agonist treatment: no AR agonist
Procedure: (§1) LMR20 cells were plated at 1,500 cells per well in phenol red-free medium with CSS.

[2] = system: prostate-specific antigen (PSA) mRNA; test: PSA mRNA levels in LMR20 cells; type: cell-based, human; settings: LMR20 cells; for PSA mRNA levels (% baseline value) after treatment with DHT: DHT 10 nM 72 hrs; for PSA mRNA levels (% baseline value) after treatment with R1881: R1881 10 nM 72 hrs; for PSA mRNA levels (% baseline value) of cells without AR agonist treatment: no AR agonist
Procedure: LMR20 cells were plated at 1,500 cells per well in phenol red-free medium with CSS. […] Results are presented in Tables 43-45 as mRNA levels expressed as a percentage of the baseline values. mRNA levels may be lowered or increased after treatment.

AR mRNA [3] = test: Antisense inhibition of human AR in HuVEC cells, single concentration (electroporation, qRT-PCR RTS3559); type: cell-based; settings: 250 nM ASO, ~24 h, Table 7
Summary of the method: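 HuVEC cells electroporated with antisense oligonucleotides at a single concentration. AR mRNA quantified by qRT-PCR using human primer-probe set RTS3559 and normalised to total RNA content by RIBOGREEN.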

AR mRNA [4] = test: Dose-dependent antisense inhibition of human AR in HuVEC cells (electroporation, qRT-PCR RTS3559, IC50); type: cell-based; settings: HuVEC, ~16 h, Table 8
Summary of the method: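 HuVEC cells dosed with antisense oligonucleotides by electroporation and treated approximately 16 hours. AR mRNA quantified by real-time qPCR with primer probe set RTS3559 and normalised to total RNA by RIBOGREEN; IC50 from dose-response.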

AR mRNA [5] = test: AR mRNA in liver, heart, skeletal muscle, kidney, prostate of cynomolgus monkeys; type: in vivo; settings: cynomolgus monkey, 40 mg/kg subcutaneously
Procedure: Cynomolgus monkeys were treated with ISIS antisense oligonucleotides selected from studies described above. Antisense oligonucleotide efficacy and tolerability were evaluated. The human antisense oligonucleotides tested are cross-reactive with the rhesus genomic sequence (GENBANK Accession No. NW_001218131.1 truncated from nucleotides 134001 to 308000 and designated herein as SEQ ID NO: 189). The target start site and target region of each oligonucleotide to SEQ ID NO: 189, as well as the details of their chemistry and sequence, is presented in Table 133.
RNA was extracted from liver, heart, skeletal muscle, kidney, and prostate tissues for real-time PCR analysis of AR using primer probe set RTS3559. The results were normalized to RIBOGREEN®. Results are presented as percent inhibition of AR mRNA, relative to PBS control.

AR mRNA [6] = test: AR mRNA in LnCaP cells by free uptake (hAR_LTS00943); type: cell-based, human; settings: 24 hrs
Procedure: Cells were plated at a concentration of 4,000 cells/well in 96-well plates. ISIS oligonucleotides, specified in Table 68, were added individually at 0.02 μM, 0.10 μM, 0.50 μM, 2.50 μM, or 10.00 μM. After an incubation period of 24 hrs, mRNA levels were measured using primer probe set hAR_LTS00943.

TMPRSS2 mRNA = TMPRSS2 mRNA levels in LMR20 cells; type: cell-based, human; settings: LMR20 cells; for TMPRSS2 mRNA levels (% baseline value) after treatment with DHT: DHT 10 nM 72 hrs; for TMPRSS2 mRNA levels (% baseline value) after treatment with R1881: R1881 10 nM 72 hrs; for TMPRSS2 mRNA levels (% baseline value) of cells without AR agonist treatment: no AR agonist
Procedure: as §1

[7] = cynomolgus monkey, in vivo, sc, 40 mg/kg
Procedure: (§2) Prior to the study, the monkeys were kept in quarantine for a 30-day period, during which the animals were observed daily for general health. The monkeys were 2-4 years old and weighed between 2 and 4 kg. Thirteen groups of four randomly assigned male cynomolgus monkeys each were injected subcutaneously with ISIS oligonucleotide or PBS. PBS solution or ISIS oligonucleotides, at a dose of 40 mg/kg, were administered with a loading regimen consisting of four doses on the first week of the study (days 1, 3, 5, and 7), followed by a maintenance regimen consisting of once weekly administration starting on Day 14 (weeks 2 to 6). Subcutaneous injections were performed in clock-wise rotations at 4 sites on the back; one site per dose. The injection sites were delineated by tattoo, while sedated using ketamine, and were separated by a minimum of 3 cm.
To evaluate any effect of ISIS oligonucleotides in cynomolgus monkeys on hematologic parameters, blood samples of approximately 0.5 mL of blood was collected day 44 from each of the available study animals in tubes containing K2-EDTA. Samples were analyzed for red blood cell (RBC) count, white blood cells (WBC) count, platelet count, hemoglobin content and hematocrit, using an ADVIA2120i hematology analyzer (SIEMENS, USA).

[8] = cynomolgus monkey, in vivo, sc, 40 mg/kg; remark: listed apart in the source
[9] = cynomolgus monkey, in vivo, sc, 40 mg/kg; remark: listed apart in the source
Procedure: as §2
To evaluate the effect of ISIS oligonucleotides on kidney function, the monkeys were fasted overnight. Approximately, 1.5 mL of blood samples were collected from all the study groups on day 44. Blood was collected in tubes without anticoagulant for serum separation. The tubes were kept at room temperature for a minimum of 90 min and then centrifuged at 3,000 rpm for 10 min. Levels of BUN and creatinine were measured using a Toshiba 120FR NEO chemistry analyzer (Toshiba Co., Japan).

[10] = cynomolgus monkey, in vivo, sc, 40 mg/kg; remark: listed apart in the source
[11] = cynomolgus monkey, in vivo, sc, 40 mg/kg; remark: listed apart in the source
Procedure: as §2
To evaluate the effect of ISIS oligonucleotides on the overall health of the animals, body and organ weights were measured.

560131 (antisense kT*kT*kG*dA*dT*dT*dT*dA*dA*dT*dG*dG*kT*kT*kG*e[5mC]) [compound 560131]
AR mRNA levels (% baseline value) after treatment with DHT (AR mRNA [1]; ASO 0.04 μM): 89 % baseline value
AR mRNA levels (% baseline value) after treatment with DHT (AR mRNA [1]; ASO 0.20 μM): 55 % baseline value
AR mRNA levels (% baseline value) after treatment with DHT (AR mRNA [1]; ASO 1.0 μM): 25 % baseline value
AR mRNA levels (% baseline value) after treatment with DHT (AR mRNA [1]; ASO 5.0 μM): 20 % baseline value
AR mRNA levels (% baseline value) after treatment with R1881 (AR mRNA [1]; ASO 0.04 μM): 87 % baseline value
AR mRNA levels (% baseline value) after treatment with R1881 (AR mRNA [1]; ASO 0.20 μM): 65 % baseline value
AR mRNA levels (% baseline value) after treatment with R1881 (AR mRNA [1]; ASO 1.0 μM): 30 % baseline value
AR mRNA levels (% baseline value) after treatment with R1881 (AR mRNA [1]; ASO 5.0 μM): 26 % baseline value
AR mRNA levels (% baseline value) of cells without AR agonist treatment (AR mRNA [1]; ASO 0.04 μM): 107 % baseline value
AR mRNA levels (% baseline value) of cells without AR agonist treatment (AR mRNA [1]; ASO 0.20 μM): 74 % baseline value
AR mRNA levels (% baseline value) of cells without AR agonist treatment (AR mRNA [1]; ASO 1.0 μM): 29 % baseline value
AR mRNA levels (% baseline value) of cells without AR agonist treatment (AR mRNA [1]; ASO 5.0 μM): 17 % baseline value
PSA mRNA levels (% baseline value) after treatment with DHT ([2]; ASO 0.04 μM): 74 % baseline value
PSA mRNA levels (% baseline value) after treatment with DHT ([2]; ASO 0.20 μM): 61 % baseline value
PSA mRNA levels (% baseline value) after treatment with DHT ([2]; ASO 1.0 μM): 35 % baseline value
PSA mRNA levels (% baseline value) after treatment with DHT ([2]; ASO 5.0 μM): 35 % baseline value
PSA mRNA levels (% baseline value) after treatment with R1881 ([2]; ASO 0.04 μM): 92 % baseline value
PSA mRNA levels (% baseline value) after treatment with R1881 ([2]; ASO 0.20 μM): 77 % baseline value
PSA mRNA levels (% baseline value) after treatment with R1881 ([2]; ASO 1.0 μM): 44 % baseline value
PSA mRNA levels (% baseline value) after treatment with R1881 ([2]; ASO 5.0 μM): 35 % baseline value
PSA mRNA levels (% baseline value) of cells without AR agonist treatment ([2]; ASO 0.04 μM): 113 % baseline value
PSA mRNA levels (% baseline value) of cells without AR agonist treatment ([2]; ASO 0.20 μM): 83 % baseline value
PSA mRNA levels (% baseline value) of cells without AR agonist treatment ([2]; ASO 1.0 μM): 75 % baseline value
PSA mRNA levels (% baseline value) of cells without AR agonist treatment ([2]; ASO 5.0 μM): 71 % baseline value
% inhibition (AR mRNA [3]): 74%
percent inhibition of AR (AR mRNA [4]; 31.25 nM): 16%
percent inhibition of AR (AR mRNA [4]; 62.5 nM): 48%
percent inhibition of AR (AR mRNA [4]; 125.0 nM): 65%
percent inhibition of AR (AR mRNA [4]; 500.0 nM): 89%
percent inhibition of AR (AR mRNA [4]; 1000.0 nM): 97%
IC50 (AR mRNA [4]): 0.09 µM
Percent Inhibition of AR mRNA relative to the PBS control, Heart (AR mRNA [5]; weeks 1 to 6, Heart): 32%
Percent Inhibition of AR mRNA relative to the PBS control, Kidney (AR mRNA [5]; weeks 1 to 6, Kidney): 19%
Percent Inhibition of AR mRNA relative to the PBS control, Liver (AR mRNA [5]; weeks 1 to 6, Liver): 65%
Percent Inhibition of AR mRNA relative to the PBS control, Prostate (AR mRNA [5]; weeks 1 to 6, Prostate): 27%
Percent Inhibition of AR mRNA relative to the PBS control, Skeletal Muscle (AR mRNA [5]; weeks 1 to 6, Skeletal Muscle): 30%
Percent inhibition of AR mRNA (AR mRNA [6]; 0.02 μM): 0%
Percent inhibition of AR mRNA (AR mRNA [6]; 0.1 μM): 0%
Percent inhibition of AR mRNA (AR mRNA [6]; 0.5 μM): 13%
Percent inhibition of AR mRNA (AR mRNA [6]; 10 μM): 57%
TMPRSS2 mRNA levels (% baseline value) after treatment with DHT (TMPRSS2 mRNA; ASO 0.04 μM): 112 % baseline value
TMPRSS2 mRNA levels (% baseline value) after treatment with DHT (TMPRSS2 mRNA; ASO 0.20 μM): 108 % baseline value
TMPRSS2 mRNA levels (% baseline value) after treatment with DHT (TMPRSS2 mRNA; ASO 1.0 μM): 93 % baseline value
TMPRSS2 mRNA levels (% baseline value) after treatment with DHT (TMPRSS2 mRNA; ASO 5.0 μM): 71 % baseline value
TMPRSS2 mRNA levels (% baseline value) after treatment with R1881 (TMPRSS2 mRNA; ASO 0.04 μM): 132 % baseline value
TMPRSS2 mRNA levels (% baseline value) after treatment with R1881 (TMPRSS2 mRNA; ASO 0.20 μM): 117 % baseline value
TMPRSS2 mRNA levels (% baseline value) after treatment with R1881 (TMPRSS2 mRNA; ASO 1.0 μM): 88 % baseline value
TMPRSS2 mRNA levels (% baseline value) after treatment with R1881 (TMPRSS2 mRNA; ASO 5.0 μM): 76 % baseline value
TMPRSS2 mRNA levels (% baseline value) of cells without AR agonist treatment (TMPRSS2 mRNA; ASO 0.04 μM): 92 % baseline value
TMPRSS2 mRNA levels (% baseline value) of cells without AR agonist treatment (TMPRSS2 mRNA; ASO 0.20 μM): 67 % baseline value
TMPRSS2 mRNA levels (% baseline value) of cells without AR agonist treatment (TMPRSS2 mRNA; ASO 1.0 μM): 52 % baseline value
TMPRSS2 mRNA levels (% baseline value) of cells without AR agonist treatment (TMPRSS2 mRNA; ASO 5.0 μM): 45 % baseline value

TGATTTAATGGTTGCA [ISIS 569213] (cEt/MOE gapmer chemistry, further chemistry not given here)
HCT [7]: 42%
Hemoglobin [7]: 12.5 g/dL
Platelets [7]: 426000 µL
RBC [7]: 5.6e+06 µL
WBC [7]: 12900 µL
ALT [8]: 47 IU/L
AST [8]: 80 IU/L
Albumin [8]: 3.7 g/dL
Plasma BUN [9]: 29.4 mg/dL
Plasma Creatinine [9]: 0.91 mg/dL
C3 (% of baseline) [10]: 60 % of baseline
CRP [10]: 2.8 mg/dL
Body Wt [11]: 2.4 kg
Heart weight [11]: 8.3 g
Kidney weight [11]: 16 g
Liver weight [11]: 69 g
Mesenteric lymph nodes weight [11]: 2.4 g
Spleen weight [11]: 5.3 g
